Values joined by “and” are separate entries in the source; they are usually repeats but may differ in a detail not shown here. Identical values can stand only once. Inconclusive results and toxic doses are left out. No stated cut-off is given here; in the data, active means T/C of 150% or more; inactive means T/C below 125%.
Tested on: L1210 leukemia ip in BDF1 mice, survival T/C
Experiment: NCI In Vivo Anticancer Drug Screen. Data for tumor model L1210 Leukemia (intraperitoneal) in B6D2F1 (BDF1) mice
Details: endpoint: mean survival time, higher = longer survival
Summary of the method: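 Ratio derived from survival: compound-dosed mice over vehicle-dosed mice, all bearing a transplantable tumor.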

[1] = dose: 100.0 mg/kg/injection, schedule: Q01DX001 (ip), vehicle: carboxymethylcellulose (CMC)
[2] = dose: 200.0 mg/kg/injection, schedule: Q01DX001 (ip), vehicle: carboxymethylcellulose (CMC)
[3] = dose: 400.0 mg/kg/injection, schedule: Q01DX001 (ip), vehicle: carboxymethylcellulose (CMC)
[4] = dose: 100.0 mg/kg/injection, schedule: Q04DX002 (ip), vehicle: saline with Tween-80
[5] = dose: 200.0 mg/kg/injection, schedule: Q04DX002 (ip), vehicle: saline with Tween-80
[6] = dose: 100.0 mg/kg/injection, schedule: Q01DX009 (ip), vehicle: saline with Tween-80
[7] = dose: 200.0 mg/kg/injection, schedule: Q01DX009 (ip), vehicle: saline with Tween-80
[8] = dose: 50.0 mg/kg/injection, schedule: Q01DX009 (ip), vehicle: saline with Tween-80
[9] = dose: 100.0 mg/kg/injection, schedule: Q01DX009 (ip), vehicle: Klucel (hydroxypropylcellulose) (HPC)
[10] = dose: 100.0 mg/kg/injection, schedule: Q04DX003 (ip), vehicle: Klucel (hydroxypropylcellulose) (HPC)
[11] = dose: 200.0 mg/kg/injection, schedule: Q01DX009 (ip), vehicle: Klucel (hydroxypropylcellulose) (HPC)
[12] = dose: 200.0 mg/kg/injection, schedule: Q04DX003 (ip), vehicle: Klucel (hydroxypropylcellulose) (HPC)
[13] = dose: 400.0 mg/kg/injection, schedule: Q01DX009 (ip), vehicle: Klucel (hydroxypropylcellulose) (HPC)
[14] = dose: 400.0 mg/kg/injection, schedule: Q04DX003 (ip), vehicle: Klucel (hydroxypropylcellulose) (HPC)
[15] = dose: 100.0 mg/kg/injection, schedule: Q04DX003 (ip), vehicle: saline with Tween-80
[16] = dose: 200.0 mg/kg/injection, schedule: Q04DX003 (ip), vehicle: saline with Tween-80
[17] = dose: 100.0 mg/kg/injection, schedule: Q01DX001 (ip), vehicle: saline
[18] = dose: 200.0 mg/kg/injection, schedule: Q01DX001 (ip), vehicle: saline
[19] = dose: 400.0 mg/kg/injection, schedule: Q01DX001 (ip), vehicle: saline
[20] = dose: 12.5 mg/kg/injection, schedule: Q04DX003 (ip), vehicle: saline
[21] = dose: 25.0 mg/kg/injection, schedule: Q04DX003 (ip), vehicle: saline
[22] = dose: 100.0 mg/kg/injection, schedule: Q04DX002 (ip), vehicle: Klucel (hydroxypropylcellulose) (HPC)
[23] = dose: 200.0 mg/kg/injection, schedule: Q04DX002 (ip), vehicle: Klucel (hydroxypropylcellulose) (HPC)
[24] = dose: 100.0 mg/kg/injection, schedule: Q01DX001 (ip), vehicle: Klucel (hydroxypropylcellulose) (HPC)
[25] = dose: 200.0 mg/kg/injection, schedule: Q01DX001 (ip), vehicle: Klucel (hydroxypropylcellulose) (HPC)

Measured: T/C

O=[N+]([O-])c1ccc(/C=C\c2ccncc2)cc1
inactive: [1] 101 % of control | dose: 100.0 mg/kg/injection, schedule: Q01DX009 (ip), vehicle: carboxymethylcellulose (CMC) 100 % of control | dose: 100.0 mg/kg/injection, schedule: Q04DX002 (ip), vehicle: carboxymethylcellulose (CMC) 103 % of control and 108 % of control | dose: 100.0 mg/kg/injection, schedule: Q04DX003 (ip), vehicle: carboxymethylcellulose (CMC) 100 % of control | [2] 105 % of control | dose: 200.0 mg/kg/injection, schedule: Q01DX009 (ip), vehicle: carboxymethylcellulose (CMC) 98 % of control | dose: 200.0 mg/kg/injection, schedule: Q04DX002 (ip), vehicle: carboxymethylcellulose (CMC) 100 % of control | dose: 200.0 mg/kg/injection, schedule: Q04DX003 (ip), vehicle: carboxymethylcellulose (CMC) 115 % of control | [3] 95 % of control | dose: 400.0 mg/kg/injection, schedule: Q04DX002 (ip), vehicle: carboxymethylcellulose (CMC) 100 % of control | dose: 400.0 mg/kg/injection, schedule: Q04DX003 (ip), vehicle: carboxymethylcellulose (CMC) 104 % of control

CNC(=O)Oc1c(C)cccc1C
inactive: [4] 103 % of control | [5] 106 % of control | dose: 400.0 mg/kg/injection, schedule: Q04DX002 (ip), vehicle: saline with Tween-80 95 % of control

CC(C)C(O)C1(C)CC1 (stereo unspecified)
inactive: [6] 96 % of control | dose: 100.0 mg/kg/injection, schedule: Q04DX003 (ip), vehicle: saline 106 % of control | [7] 95 % of control | dose: 200.0 mg/kg/injection, schedule: Q04DX003 (ip), vehicle: saline 107 % of control | dose: 400.0 mg/kg/injection, schedule: Q04DX003 (ip), vehicle: saline 111 % of control

C=CCc1ccc(OC(=O)Nc2cccc(C)c2)c(OC)c1
inactive: [8] 98 % of control | [6] 112 % of control | [4] 99 % of control | [7] 101 % of control and 102 % of control | [5] 89 % of control

Cc1ccc(N=C(c2ccc([N+](=O)[O-])cc2)c2ccc([N+](=O)[O-])cc2)cc1
inactive: [9] 97 % of control | [10] 96 % of control | [11] 96 % of control | [12] 102 % of control | [13] 102 % of control | [14] 96 % of control

CC(=O)Oc1ccc2c(c1)C1(C)CCCC(C)(C(=O)O)C1CC2 (stereo unspecified)
inactive: [15] 92 % of control | [16] 97 % of control | dose: 400.0 mg/kg/injection, schedule: Q04DX003 (ip), vehicle: saline with Tween-80 94 % of control

CS(=O)(=O)c1ccc2c(c1)-c1ccc(N)cc1C2=O
inactive: [1] 117 % of control | [2] 102 % of control | [3] 102 % of control

CCOC(=O)C(=CC(CC)(C(=O)OCC)C(=O)OCC)C(=O)OCC
inactive: [17] 101 % of control | [18] 97 % of control | [19] 95 % of control

Nc1ncnc2nc(SC3OC(CO)C(O)C3O)[nH]c12 (stereo unspecified)
inactive: dose: 150.0 mg/kg/injection, schedule: Q01DX001 (ip), vehicle: saline 100 % of control | dose: 300.0 mg/kg/injection, schedule: Q01DX001 (ip), vehicle: saline 100 % of control

O=C(COC(=O)c1c(Cl)c(Cl)c(Cl)c(Cl)c1C(=O)O)c1ccc(-c2ccccc2)cc1
inactive: [17] 94 % of control | [18] 102 % of control | [19] 91 % of control

C=CC(C(=O)OCC)C(O)CCC (stereo unspecified)
inactive: dose: 50.0 mg/kg/injection, schedule: Q01DX009 (ip), vehicle: Klucel (hydroxypropylcellulose) (HPC) 104 % of control | [9] 95 % of control | [10] 95 % of control | [11] 101 % of control and 108 % of control | [12] 94 % of control | [13] 100 % of control | [14] 101 % of control

Cc1cc(C(=O)O)ccc1S(=O)(=O)F
inactive: dose: 25.0 mg/kg/injection, schedule: Q01DX009 (ip), vehicle: saline with Tween-80 96 % of control | [8] 102 % of control | [6] 92 % of control and 100 % of control

CC(C)(C)c1ccc(N)cc1
inactive: [20] 106 % of control | [21] 95 % of control | dose: 50.0 mg/kg/injection, schedule: Q04DX003 (ip), vehicle: saline 98 % of control

Cn1c2c(c(=O)n(C)c1=O)CCC(=O)N2
inactive: [22] 106 % of control | [23] 98 % of control | dose: 400.0 mg/kg/injection, schedule: Q04DX002 (ip), vehicle: Klucel (hydroxypropylcellulose) (HPC) 92 % of control

O=C(O)c1cccc2c1ccc1ccccc12
inactive: dose: 75.0 mg/kg/injection, schedule: Q04DX003 (ip), vehicle: saline 104 % of control | dose: 150.0 mg/kg/injection, schedule: Q04DX003 (ip), vehicle: saline 102 % of control | dose: 300.0 mg/kg/injection, schedule: Q04DX003 (ip), vehicle: saline 100 % of control

CC(=O)C1(C)Nc2cccc3cccc(c23)N1
inactive: [6] 97 % of control | [7] 106 % of control | dose: 400.0 mg/kg/injection, schedule: Q01DX009 (ip), vehicle: saline with Tween-80 96 % of control

Cc1cc(C)c(S(=O)(=O)C(=O)/C=N/N)c(C)c1
inactive: [24] 96 % of control | [10] 98 % of control | [25] 100 % of control | [11] 91 % of control | [12] 98 % of control | dose: 400.0 mg/kg/injection, schedule: Q01DX001 (ip), vehicle: Klucel (hydroxypropylcellulose) (HPC) 94 % of control | [13] 93 % of control | [14] 96 % of control

CCOC(=O)C(CC(=O)O)=C1c2ccccc2-c2ccccc21
inactive: [24] 100 % of control | [9] 95 % of control and 102 % of control | [22] 95 % of control and 102 % of control | [25] 94 % of control | [11] 95 % of control and 96 % of control | [23] 96 % of control and 98 % of control

CC12CCCCC1C(C(C)(C)OC(=O)c1ccc([N+](=O)[O-])cc1)CC2 (stereo unspecified)
inactive: dose: 25.0 mg/kg/injection, schedule: Q04DX002 (ip), vehicle: Klucel (hydroxypropylcellulose) (HPC) 105 % of control | dose: 50.0 mg/kg/injection, schedule: Q04DX002 (ip), vehicle: Klucel (hydroxypropylcellulose) (HPC) 99 % of control | [22] 89 % of control

CC(C)=CC[Se]c1ncnc2c1ncn2C1OC(CO)C(O)C1O (stereo unspecified)
inactive: dose: 12.5 mg/kg/injection, schedule: Q01DX005 (ip), vehicle: saline 91 % of control | dose: 25.0 mg/kg/injection, schedule: Q01DX005 (ip), vehicle: saline 91 % of control | dose: 50.0 mg/kg/injection, schedule: Q01DX005 (ip), vehicle: saline 87 % of control

CCCCC(CCCC)C(=O)O
inactive: [1] 111 % of control | [2] 92 % of control | [3] 101 % of control

CCCCC#CC(=O)OCCCCC
inactive: [6] 105 % of control | [7] 91 % of control

Nc1cc(N)cc([N+](=O)[O-])c1
inactive: dose: 3.12 mg/kg/injection, schedule: Q01DX009 (ip), vehicle: saline 103 % of control | dose: 6.25 mg/kg/injection, schedule: Q01DX009 (ip), vehicle: saline 103 % of control | dose: 6.25 mg/kg/injection, schedule: Q04DX003 (ip), vehicle: saline 101 % of control | dose: 12.5 mg/kg/injection, schedule: Q01DX009 (ip), vehicle: saline 95 % of control | [20] 101 % of control | [21] 101 % of control | dose: 50.0 mg/kg/injection, schedule: Q01DX001 (ip), vehicle: carboxymethylcellulose (CMC) 113 % of control | [1] 109 % of control | [2] 107 % of control | [3] 109 % of control

CC(C)(C)c1ccc(O)c(C(C)(C)C)c1
inactive: [8] 100 % of control | [6] 96 % of control | [15] 91 % of control | [7] 97 % of control | [16] 95 % of control

Reference: PubChem BioAssay AID248 (DTP/NCI, 2004)
